In data set [1] the test system is Bombyx mori. The data set is described as follows: Juvenile hormone like activity in fourth-instar larvae of Bombyx mori C137 x N137 assessed as induction of precocious metamorphosis applied topically. The format is functional.
Data set [2] has as its system Bombyx mori. The data set is described as follows: Juvenile hormone like activity in fourth-instar larvae of Bombyx mori C137 x N137 assessed as induction of precocious metamorphosis at > 40 ug/larvae applied topically. The format is functional.
Data set [3] has as its system Bombyx mori. The data set can be described thus: Juvenile hormone like activity in fourth-instar larvae of Bombyx mori C146 x N137 assessed as induction of precocious metamorphosis applied topically. The data set is classed as functional.
Data set [4] has as its system Bombyx mori. The data set is described as follows: Juvenile hormone like activity in fourth-instar larvae of Bombyx mori C146 x N137 assessed as induction of precocious metamorphosis at > 40 ug/larvae applied topically. The data set is classed as functional.
In data set [5] the test system is Bombyx mori. The data set is described as follows: Juvenile hormone like activity in fourth-instar larvae of Bombyx mori assessed as induction of precocious metamorphosis at 1 ug applied topically. The data set is classed as functional.
Data set [6] relates to Bombyx mori. The data set can be described thus: Juvenile hormone like activity in fourth-instar larvae of Bombyx mori C137 x N137 assessed as induction of precocious metamorphosis at > 60 ug/larvae applied topically. The format is functional.
For data set [7], the system named is Bombyx mori. The data set is described as follows: Juvenile hormone like activity in third-instar larvae of Bombyx mori assessed as spun cocoons at fourth-instar at 5 to 160 ug applied topically. The format is functional, organism-based.
Data set [8] deals with Bombyx mori. The data set is described as follows: Juvenile hormone like activity in third-instar larvae of Bombyx mori assessed as spun cocoons at fifth-instar at 5 to 160 ug applied topically. The data set is classed as functional, organism-based.
Data set [9] has as its system Bombyx mori. The data set can be described thus: Toxicity in third-instar larvae of Bombyx mori at 160 ug applied topically. The data set is classed as organism-based. The conditions noted are these: in vivo, topical_or_ocular.
Data set [10] has as its system Bombyx mori. The data set is described as follows: Juvenile hormone like activity in fourth-instar larvae of Bombyx mori assessed as induction of precocious metamorphosis at 40 ug/larvae applied topically in presence of 1 ug of methoprene. The data set is classed as functional.
In data set [11] the test system is Bombyx mori. The data set can be described thus: Juvenile hormone like activity in fourth-instar larvae of Bombyx mori assessed as induction of precocious metamorphosis at 40 ug/larvae applied topically. The data set is classed as functional.
Data set [12] has as its system Bombyx mori. The data set can be described thus: Juvenile hormone like activity in fourth-instar larvae of Bombyx mori assessed as induction of precocious metamorphosis at 40 ug/larvae applied topically in presence of 0.5 ug of methoprene. The format is functional.
Data set [13] relates to Bombyx mori. The data set can be described thus: Juvenile hormone like activity in fourth-instar larvae of Bombyx mori assessed as induction of precocious metamorphosis at 40 ug/larvae applied topically in presence of 0.1 ug of methoprene. The format is functional.

Calls of active or inactive are those of the source. The calls are words filed in the database; no cut-off is given here. Some results are limits rather than exact numbers.

With `CC(C)(C)Cn1cncc1-c1cccc(OCc2ccccc2)c1`, the ED50 in the data set with Bombyx mori [1] came out at 40 µg. In the data set on Bombyx mori [2], the Activity is given as 0%.
The matching figures for `CC(C)n1cncc1-c1ccccc1OCc1ccccc1`: 40 µg and 0%.
On to `CC(C)n1cncc1-c1cccc(OCCc2ccccc2)c1`, for which the ED50 in the data set on Bombyx mori [3] is more than 40 µg. In the data set with Bombyx mori [4], the Activity turned out to be 20%.
Turning to `CC(C)Cn1cncc1-c1cccc(OCc2ccccc2)c1`, the ED50 in the data set with Bombyx mori [1] is 28 µg.
For the compound `CCCCCCOc1cccc(-c2cncn2C(C)C)c1`, in the data set with Bombyx mori [3], the ED50 was more than 40 µg. For the same compound, in the data set on Bombyx mori [4], the Activity was found to be 35%.
`COC(C)(C)CCC[C@H](C)C/C=C/C(C)=C/C(=O)OC(C)C` [METHOPRENE]: the Activity in the data set with Bombyx mori [5] worked out at 0%.
For `COc1cccc(-c2cncn2C(C)C)c1`, the ED50 with Bombyx mori [3] was more than 40 µg. In the data set on Bombyx mori [4], the Activity was determined as 0%.
For `CC(C)=CCC/C(C)=C/COc1cccc(-c2cncn2CC(C)C)c1`, in the data set with Bombyx mori [1], the ED50 was more than 40 µg. Further, in the data set on Bombyx mori [2], the Activity turned out to be 0%.
For `CC(C)n1cncc1-c1cccc(OCc2cccc(Cl)c2)c1`, in the data set on Bombyx mori [3], the ED50 is more than 40 µg. Further, the Activity in the data set with Bombyx mori [4] was 5%.
On the same counts, the results for `CCCCCCCCOc1cccc(-c2cncn2C(C)C)c1` are more than 40 µg and 25%.
Consider `Cn1cncc1-c1cccc(OCc2ccccc2)c1`, for which the Activity in the data set with Bombyx mori [6] turned out to be 0%. Further, the ED50 in the data set on Bombyx mori [1] is 60 µg.
As to `CC(C)n1cncc1-c1ccc(OCc2ccccc2)cc1`, in the data set with Bombyx mori [1], the ED50 is 40 µg. The Activity in the data set on Bombyx mori [2] came to 30%.
On the same counts, the results for `CCCCn1cncc1-c1cccc(OCc2ccccc2)c1` are 40 µg and 0%.
The matching figures for `CC(C)n1cncc1-c1cccc(O)c1`: more than 40 µg and 0%.
Take `COc1ccc(COc2cccc(-c3cncn3C(C)C)c2)cc1`: the ED50 with Bombyx mori [3] was more than 40 µg. Besides, the Activity in the data set on Bombyx mori [4] turned out to be 15%.
Take `c1ccc(COc2cccc(-c3cncn3Cc3ccccc3)c2)cc1`: the ED50 with Bombyx mori [1] was 40 µg. Moreover, the Activity in the data set with Bombyx mori [2] is given as 0%.
On to `CC(C)Cn1cncc1-c1cccc(Oc2ccccc2)c1`, for which the outcome in the data set on Bombyx mori [7] and in the data set with Bombyx mori [8] was Active. In addition, in the data set on Bombyx mori [1], the ED50 came out at 14.7 µg.
For the compound `CC(C)Cn1cncc1-c1ccc(Oc2ccccc2)cc1`, the ED50 in the data set with Bombyx mori [1] is 55.5 µg. Besides, the Activity result in the data set on Bombyx mori [9] is “Toxic”.
`CC(C)n1cncc1-c1cccc(OCc2ccc(F)cc2)c1`: in the data set with Bombyx mori [3], the ED50 was more than 40 µg.
For `CCn1cncc1-c1cccc(OCc2ccccc2)c1`, the ED50 with Bombyx mori [1] amounted to 30.2 µg.
For `CC(C)COc1cccc(-c2cncn2C(C)C)c1`, the ED50 with Bombyx mori [3] is more than 40 µg. Also, in the data set with Bombyx mori [4], the Activity was found to be 35%.
In the case of `CC(C)n1cncc1-c1cccc(OCc2ccccc2)c1`, the result with Bombyx mori [7] and in the data set on Bombyx mori [8] was Active. The ED50 turned out to be 13.2 µg in the data set on Bombyx mori [3] and 0.9 µg with Bombyx mori [1]. The Activity with Bombyx mori [10] is recorded as 0%; in the data set on Bombyx mori [11], 100%; in the data set on Bombyx mori [12], 30%; with Bombyx mori [9], “Toxic”; in the data set on Bombyx mori [13] it was 70%.
For `COc1cccc(COc2cccc(-c3cncn3C(C)C)c2)c1`, in the data set with Bombyx mori [3], the ED50 was more than 40 µg. Besides, the Activity in the data set with Bombyx mori [4] came to 25%.
On the same counts, the results for `CC(C)n1cncc1-c1cccc(OCc2ccccc2Cl)c1` are more than 40 µg and 0%.
Consider `CC(C)n1cncc1-c1cccc(OCc2ccc(Cl)cc2)c1`, for which the ED50 with Bombyx mori [3] is more than 40 µg. The Activity with Bombyx mori [4] was 20%.
As to `CCCn1cncc1-c1cccc(OCc2ccccc2)c1`, the ED50 with Bombyx mori [1] is 21.1 µg.
Consider `CC(Oc1cccc(-c2cncn2C(C)C)c1)c1ccccc1` (stereo unspecified), for which, in the data set with Bombyx mori [3], the ED50 is more than 40 µg. Further, the Activity in the data set on Bombyx mori [4] is recorded as 0%.
For the compound `CC(C)n1cncc1-c1cccc(Oc2ccccc2)c1`, the ED50 with Bombyx mori [3] stood at 53.3 µg; in the data set on Bombyx mori [1], 21.6 µg.
For the compound `CC(C)=CCC/C(C)=C/COc1cccc(-c2cncn2C(C)C)c1`, the ED50 in the data set with Bombyx mori [3] is more than 40 µg. Further, the Activity with Bombyx mori [4] came to 0%.

For the origin of these results see ChEMBL document CHEMBL3045242, “Synthesis and Insect Growth Regulatory Activity of 1,5-Disubstituted Imidazoles with Non-terpene Chains” (Agric Biol Chem, 1991).
